How the values were obtained:
atrium dextrum specimens = test: Antiarrhythmic activity (cardiomuscular action to the maximal stimulus frequency); design: species or system guinea-pigs; details: isolated guinea-pig atrium dextrum, Krebs-Ringer-sodium carbonate solution, 30° C., after 10 minutes treatment with test compound
Description: (a) Antiarrhythmic activity (cardiomuscular action to the maximal stimulus frequency) A certain number of atrium dextrum specimens were made by extracting the heart from male and female guinea-pigs weighing on average 350 to 600 g, and then suspended and fixed in a glass vessel filled with Krebs-Ringer-sodium carbonate solution (30° C.) in which a mixture of 95% oxygen and 5% carbon dioxide was continuously introduced. The automatism of the specimens was recorded on the oscillograph. Maximal stimulus frequency was confirmed by affording a stimulus of the atrium dextrum from the exciting electrode equipped to a retainer. After previously treating with a test compound for 10 minutes, the reducing percent (%) of the maximal stimulus frequency was calculated by observing the reduction of the maximal frequency [[…].: Brit. […]., 1, 90 (1946)].

SLC-DDY male mice = test: in vivo; format: in vivo; details: LD50, up and down method, into tail venae (intravenous), SLC-DDY male mice 25 to 35 g
Text: (§1) Lethal dose was obtained by administering a test compound in the form of a physiological brine solution into the tail venae of SLC-DDY male mice weighing from 25 to 35 g and calculating the value of LD50 by the up and down method [Brownlee, K. A. et al.: J. Am. Stat. As., 48, 262 (1953)].

in vivo = format: in vivo; details: mouse, in vivo; LD50, up and down method, into tail venae (intravenous), SLC-DDY male mice 25 to 35 g; read-out: Acute toxicity (LD50)
Text: as §1

For `C=C(c1ccc(Cl)c(Cl)c1OCC(O)CNC(C)C)n1ccnc1` (stereo not shown) [Example 26], the “Reducing percent (%) of Maximal stimulus frequency” value (“Reducing percent (%)” for short) (atrium dextrum specimens) was 35.8% and the “Acute toxicity (LD50)” value (SLC-DDY male mice) was 33.9 mg/kg.

In the case of `C=C[C@H]1C[N@@]2CC[C@H]1C[C@@H]2[C@@H](O)c1ccnc2ccc(OC)cc12` [Quinidine, reference compound], the “Reducing percent (%)” value (atrium dextrum specimens) is reported as 22.8%.

For `C=C(c1ccccc1OCC(O)CNC(C)C)n1cnc(C(=O)OCC)c1C` (stereo not shown) [Example 17], the “Reducing percent (%)” value (atrium dextrum specimens) was 31.7% and the LD50 (in vivo) was 36.4 mg/kg.

For `C=C(c1c(Cl)ccc(Cl)c1OCC(O)CNC(C)C)n1ccnc1` (stereo not shown) [Example 7], the “Reducing percent (%)” value (atrium dextrum specimens) was 38.1% and the “Acute toxicity (LD50)” value (SLC-DDY male mice) was 19.8 mg/kg.

With `C=C(c1c(Cl)ccc(Cl)c1OCC(O)CNCC(C)C)n1ccnc1` (stereo not shown) [Example 13] the “Reducing percent (%)” value (atrium dextrum specimens) was 34.5% and the “Acute toxicity (LD50)” value (SLC-DDY male mice) was 15.5 mg/kg.

For `C=C(c1ccccc1OCC(O)CNC(C)(C)C)n1cccn1` (stereo not shown) [Example 25], the “Reducing percent (%)” value (atrium dextrum specimens) was 39.2% and the “Acute toxicity (LD50)” value (SLC-DDY male mice) was 22.3 mg/kg.

With `C=C(c1c(C)ccc(Cl)c1OCC(O)CNC(C)C)n1ccnc1` (stereo not shown) [Example 30] the “Reducing percent (%)” value (atrium dextrum specimens) was 50.6% and the “Acute toxicity (LD50)” value (SLC-DDY male mice) was 28.5 mg/kg.

In the case of `C=C(c1ccccc1OCC(O)CNC(C)C)n1cncn1` (stereo not shown) [Example 31], the “Reducing percent (%)” value (atrium dextrum specimens) is reported as 42.8% and the “Acute toxicity (LD50)” value (SLC-DDY male mice) is reported as 36.4 mg/kg.

For `C=C(c1ccccc1OCC(O)CNC(C)(C)C)n1cnc2ccccc21` (stereo not shown) [Example 22], the “Reducing percent (%)” value (atrium dextrum specimens) was 35.8% and the “Acute toxicity (LD50)” value (SLC-DDY male mice) was 26.5 mg/kg.

With `C=C(c1ccccc1OCC(O)CNC(C)C)n1cnc(C)c1` (stereo not shown) [Example 24] the “Reducing percent (%)” value (atrium dextrum specimens) was 36.1% and the “Acute toxicity (LD50)” value (SLC-DDY male mice) was 36.4 mg/kg.
